Measured values taken from patent US12186303B2, “Feed additive for cattle comprising n-acetyl-l-tryptophan as active ingredient” (CJ CHEILJEDANG CORPORATION, priority 2018, dated 2025).

Columns and labels:
Korean native steers = assay: Body weight, average daily gain and feed conversion ratio according to NALT feeding under cold stress conditions; assay type: in vivo, Korean native cattle
Method: In the present disclosure, 8 Korean native steers (8.3±0.72 months old on average) were selected and used. […] Analysis of chemical composition (moisture, crude protein, crude fat, crude ash, etc.) and amino acids (19 types) of the basal diet stored at −20° C. was performed, and the results are shown in Table 3. After grouping the animals by statistical analysis of initial body weights, the animals were bred in 1.0×1.5 m^2 individual pens during the experiment period. The feed was offered based on an amount of dry matter of daily total mixed ration (TMR) per head. After 7 days of an adaptation period for N-acetyl-L-tryptophan (NALT), a mixture of 0.1% N-acetyl-L-tryptophan (NALT) and the total mixed ration was fed to individual animals every morning at 8 a.m. for 6 weeks, and water was available ad libitum. Total amounts of L-tryptophan ingested by the control and NALT-treated group by feeding NALT were 7.37 g/day/head and 16.26 g/day/head, respectively. The experiment was performed such that the NALT-treated group ingested 8.89 g/day/head more L-tryptophan than that of the control. Meanwhile, results of growth performance analysis (body weight and average feed intake) and genetic analysis of loin tissue were obtained by statistically comparing and analyzing significant differences between the control and the NALT-treated group, and results of hematological analysis were obtained via statistical comparison and analysis depending on NALT treatment, experiment period (days), and interaction (treatment×days). These numerical values were expressed as average values, and a significance test was performed at the 5% level using Student's t-test by using the JMP 5.0 software package (SAS Institute Inc., Cary, NC, USA). An average temperature during the adaptation period (days 0-6) was 4.3° C., and average temperatures during the experiment period were in the range of −6.2° C. to 4.2° C., relatively low compared to that of the adaptation period. In addition, an average temperature of the entire experiment period (days 7-48) was −1.0° C. Initial weight (day 0), intermediate weight (day 27), and end weight (day 48) of sentinel animals were measured, i.e., three times in total, before offering morning feed. The average daily gain (average daily weight gain, ADG) of the sentinel animals was calculated by dividing the differences in weight, between the initial weight and the intermediate weight and between the intermediate weight and the end weight, by the total number of days of the experiment.

[1] = system: genes related to fat differentiation (PPARr, CEBPa, FABP4, LPL, and SCD) and muscle differentiation (MYF6, MyoD, and MyoG) of the loin tissue; assay: Real-time PCR of gene expression related to loin tissue development under heat stress conditions; assay type: in vivo, Korean native cattle
Description: After grouping the animals by statistical analysis of initial body weights, the animals were bred in 1.0×1.5 m^2 individual pens during the experiment period. The feed was offered based on an amount of dry matter of daily total mixed ration (TMR) per head. After 7 days of an adaptation period for N-acetyl-L-tryptophan (NALT), a mixture of 0.1% N-acetyl-L-tryptophan (NALT) and the total mixed ration was fed to individual animals every morning at 8 a.m. for 6 weeks, and water was available ad libitum. Total amounts of L-tryptophan ingested by the control and the experimental group (NALT-treated group) by feeding NALT were 6.0 g/day/head and 18.2 g/day/head, respectively. The experiment was performed such that the NALT-treated group ingested 12.2 g/day/head more L-tryptophan than the control. Meanwhile, results of growth performance analysis (body weight and average feed intake) and genetic analysis of loin tissue were obtained by statistically comparing and analyzing significant differences between the control and the NALT-treated group, and results of hematological analysis were obtained via statistical comparison and analysis depending on NALT treatment, experiment period (days), and interaction (treatment×days). These numerical values were expressed as average values, and a significance test was performed at the 5% level using Student's t-test by using a JMP 5.0 software package (SAS Institute Inc., Cary, NC, USA). Samples of loin tissue of the sentinel animals were obtained on the final day of the experiment (week 10). The samples were obtained using a biopsy gun for animals (TNT Research Co., Ltd., Gyeonggi-do, Republic of Korea), added to a 2 mL tube, and incubated in liquid nitrogen gas. After extraction of RNA from each tissue sample, real-time PCR was conducted to analyze expression levels of genes related to fat differentiation (PPARr, CEBPa, FABP4, LPL, and SCD) and muscle differentiation (MYF6, MyoD, and MyoG) of the loin tissue of each animal. Total RNA was isolated using the TRIzol RNA isolation protocol, and the amount of RNA was measured using a NanoDrop 1000 (Thermo Scientific, Seoul, Republic of Korea). The RNA integrity (RIN) was estimated using an RNA Nano 6000 Assay Kit of the Agilent Bioanalyzer 2100 system (Agilent Technologies, Richardson, USA), and an obtained RNA integrity number (RIN) was 6.5±0.27. After synthesizing cDNA from mRNA, real-time PCR was conducted to measure expression levels of the genes.

[2] = 0.1% NALT, week 10, control = 1.00000

CC(=O)N[C@@H](Cc1c[nH]c2ccccc12)C(=O)O [NALT, N-acetyl-L-tryptophan]
Decrease of feed conversion ratio compared to the control (Korean native steers; 0.1% NALT in TMR): 63% | Feed conversion ratio of the NALT-treated group relative to the control (Korean native steers; 0.1% NALT in TMR): 37% | Body weight (Korean native steers; 0.1% NALT in TMR, Day 0 (initial weight)): 279.7 kg | Body weight (Korean native steers; 0.1% NALT in TMR, Day 27): 301.5 kg | Feed conversion ratio (Korean native steers; 0.1% NALT in TMR, Day 27): 13.3 | ADG (average daily gain) (Korean native steers; 0.1% NALT in TMR, Day 27 (day 0 to day 27)): 0.753 kg/day | Body weight (Korean native steers; 0.1% NALT in TMR, Day 48): 315.7 kg | Feed conversion ratio (Korean native steers; 0.1% NALT in TMR, Day 48): 4.82 | ADG (average daily gain) (Korean native steers; 0.1% NALT in TMR, Day 48 (day 27 to day 48)): 0.766 kg/day | Total weight change compared with the control (Korean native steers; day 27 and day 48): no statistically significant difference | Gene expression level of SCD compared to the control [1]: tended to be higher | C/EBPα expression level in loin tissue [1, 2]: 0.8053 | FABP4 expression level in loin tissue [1, 2]: 1.501 | LPL expression level in loin tissue [1, 2]: 1.774 | MYF6 expression level in loin tissue [1, 2]: 1.093 | MyoD expression level in loin tissue [1, 2]: 1.045 | MyoG expression level in loin tissue [1, 2]: 2.086 | PPARγ expression level in loin tissue [1, 2]: 1.301 | SCD expression level in loin tissue [1, 2]: 1.448 | Expression levels of MYF6 and MyoG and of lipolysis/fat transport genes (FABP4 and LPL) in loin tissue compared to the control ([1]; p<0.05): higher | Expression of muscle differentiation-related gene (MyoD) and fat differentiation-related genes (C/EBPα and PPARγ) compared to the control ([1]; p>0.05): No statistically significant difference
